Assays:
Format in all cases: cell-based, human
[1] = test system: HepG2 cells; test: Western blotting, HepG2 normal model; settings: 24 h
Description: (§1) HepG2 cells were obtained directly from ATCC (HB-8065) and cultured in DMEM with low glucose, supplemented with fetal bovine serum, 100 U/mL penicillin G, and […] streptomycin. The media was freshly prepared and sterilized by filtration. Cells were maintained with a maximum of 10 passages before being discarded. For cell counting, the cells were washed twice with phosphate-buffered saline (PBS), trypsinized, and counted using a Neubauer chamber. For the insulin-resistant model, 75,000 cells per well were seeded in 6-well plates at 37 °C in 5% CO2 and cultured for 72 h. Subsequently, insulin (0.1 μM) was added to induce insulin resistance for 24 h. After this period, inhibitors were incubated for 24 h, followed by a final 30 min insulin stimulation (0.1 μM) before protein extraction. For the normal model, 75,000 cells per well were seeded in 6-well plates at 37 °C in 5% CO2 and cultured for 96 h. After that, the cells were incubated with the inhibitors for 24 h, followed by protein extraction.
(§2) Treated cells were washed twice with 1 mL of PBS, and proteins were extracted using 300 μL of a buffer solution containing 10% sodium deoxycholate in 10% TEAB, supplemented with a protease and phosphatase inhibitor cocktail. The extracts were heated at 80 °C for 5 min and dissociated by repeated passages through an insulin syringe. The cell extracts were centrifuged at 15,000 rpm for 15 min at 4 °C, and the supernatant was collected. Protein quantification was performed using the bicinchoninic acid assay, and aliquots were prepared for Western blotting. SDS-PAGE was conducted, and proteins were transferred onto a nitrocellulose membrane. The membrane was blocked with 10% skim milk in TBST for 1 h and incubated overnight with primary antibodies (1:400 dilution). Secondary antibodies conjugated to horseradish peroxidase were diluted 1:2,000, and the membranes were incubated for 1 h at room temperature. Blots were visualized using the ChemiDoc MP (Bio-Rad), and densitometric analysis was performed with ImageJ (U.S. National Institutes of Health). Statistical analyses were conducted using GraphPad Prism 8.0.
compounds at 24 h of treatment. β-actin was employed as loading control. b) Densitometric analysis of western blot images
employing ImageJ analysis software. Bar graphs represent the mean ± SEM of normalized values. The control levels were set to
1. Asterisks indicate statistical significance according to the Dunn test. p* < 0.05
(§3) (1 picture or pasted object on this page, not shown here)

[2] = test system: HepG2 cells; test: GC-MS untargeted metabolomic analysis; settings: HepG2, 30 μM for 24 h, vs DMSO
Description: HepG2 cells are commonly utilized in metabolomics to study alterations in metabolic pathways, such as glycolysis and lipid metabolism, when exposed to various substances, − due to their ability to sustain liver-specific functions. To explore the metabolic changes induced by the 4b and 5g derivatives in HepG2 cells, an untargeted metabolomic analysis using GC-MS was carried out. […] This vitamin is essential for synthesizing coenzyme A (CoA), which in turn produces acetyl-CoA and succinyl-CoA, all of which are crucial for ATP production in the tricarboxylic acid (TCA) cycle. […] On the other hand, our findings indicate that 5g leads to a reduction in intracellular citrate levels, which may promote glycolysis and diminish gluconeogenesis similarly to metformin. Consequently, this could potentially lower hepatic glucose output. In summary, the increased intracellular levels of pantothenic acid and glycine, combined with the lowered citrate levels achieved by 5g, may play a significant role in improving insulin resistance and T2DM.
5 GC-MS-based untargeted metabolomic analysis of HepG2. (a) Heatmap analysis of HepG2 cells treated with DMSO (D, vehicle), 4b, or 5g for 24 h. (b) Principal Component Analysis (PCA) of untargeted metabolomic analysis of HepG2 treated with DMSO (vehicle), 4b, and 5g at 30 μM for 24 h (c). Statistically significant metabolites altered between the groups. Graphs were constructed using sum-normalized peak height values. Asterisks indicate statistical significance according to the Dunn test, with p-values denoted as follows: *p < 0.05, **p < 0.01. Created in BioRender. Matuz Mares, D. (2025) https://BioRender.com/hpj5plg.
The treated HepG2 cells were washed twice with 1 mL of PBS, and the liquid was entirely removed by pipetting. Posteriorly, 1 mL of ice-cold methanol containing 2.5 μL of internal standard, consisting of tridecanoic acid (0.1 mg/mL), was added, and the mixture was bath sonicated for 2 min. All the extract was recovered in microcentrifuge tubes, thoroughly vortexed, and then centrifuged for 10 min at 15,000 rpm at 4 °C. The supernatant was recovered and dried overnight using a SpeedVac (SPD 121P, Thermo Scientific). 40 μL of 20 mg/mL […] was added under nitrogen flow and incubated for 90 min at 37 °C. Posteriorly, the tube was centrifuged, and the supernatant was fully recovered and transferred to an insert tube with 40 μL of MBSTFA 1% TMCS, vortexed and incubated for 30 min. One μL of this extract was injected into a GC/MS (Agilent 5977A/7890B, Santa Clara, CA, USA) system with HP5-MS (Agilent) column with helium 99.9999% purity under the following parameters: splitless, flow 1 mL/min, electron ionization, with a range of 50–500 m/z. The chromatography consisted of a 1 min hold at 60 °C, followed by a ramp of 10 °C/min to 325 °C, and a final hold time of 10 min. Raw data was transformed with Agilent Mass Hunter to mz data, and deconvolution and alignment were performed with Mzmine2.0. Univariate and multivariate analyses were performed with Metaboanalyst 6.0 and GraphPad.

[3] = test system: insulin-resistant HepG2 cells; test: Western blotting, insulin-resistant HepG2 model; settings: 24 h
Description: as §1, §2
resistance model in HepG2 cells . a) Western blotting representative analysis (n=3) of PTP1B, p -AKT, p-IRS1 and p-STAT3 levels
of HepG2 cells treated with the compounds at 24 h of treatment. β-actin was employed as loading control. b) Densitometric
analysis of western blot images employing ImageJ analysis software. Bar graphs represent the mean ± SEM of normalized values.
The control levels were set to 1. Asterisks indicate statistical significance according to the Dunn test. p* < 0.05.
as §3

Compound | p-STAT3 levels [1] | glycine levels [2] | intracellular fructose levels [2] | intracellular glucose levels [2] | intracellular palmitic acid levels [2] | intracellular stearic acid levels [2] | pantothenic acid levels [2] | p-IRS levels [1] | p-IRS levels [3] | intracellular citrate levels [2]
CC1(C)c2[nH]c3ccc(OC(F)F)cc3c2C[C@]2(C)[C@H]3C(=O)C=C4[C@@H]5C[C@@](C)(C(=O)O)CC[C@]5(C)CC[C@@]4(C)[C@]3(C)CC[C@@H]12 [compound 4b, (20β)-5′-(Difluoromethoxy)-11-oxo-1′H-oleana-2,12-dieno[3,2-b]indol-29-oic Acid] | only a minor increase | not statistically significant | not statistically significant | not statistically significant | significantly reduce | significantly reduce | not statistically significant |  |  | 
CC1(C)c2[nH]c3ccc(S(N)(=O)=O)cc3c2C[C@]2(C)[C@H]3C(=O)C=C4[C@@H]5C[C@@](C)(C(=O)O)CC[C@]5(C)CC[C@@]4(C)[C@]3(C)CC[C@@H]12 [compound 4g, (20β)-5′-Sulfamoyl-11-oxo-1′H-oleana-2,12-dieno[3,2-b]indol-29-oic Acid] | slight but not statistically significant increase |  |  |  |  |  |  | slight but not statistically significant increase |  | 
CC1(C)c2c(cnn2-c2ccc(S(N)(=O)=O)cc2)C[C@]2(C)[C@H]3C(=O)C=C4[C@@H]5C[C@@](C)(C(=O)O)CC[C@]5(C)CC[C@@]4(C)[C@]3(C)CC[C@@H]12 [compound 5g, (20β)-11-Oxo-2′-(4-sulfamoylphenyl)-2′H-oleana-2,12-dieno[3,2-c]pyrazol-29-oic Acid] |  | markedly increasing | significantly lowers | significantly lowers |  |  | significant increase |  | tendency to increase p-IRS levels | reduction

Reference: article PMC12921516 (ACS Bio & Med Chem Au, 2025)
